Results on 15 compounds are retold here after US4582821A, “Inhibition of cyclic nucleotide independent protein kinases” (E. I. Du Pont de Nemours and Company, priority 1983, dated 1986).

In general, % inhibition refers to how much of the control response was suppressed. Read a low % inhibition as little suppression.

In one assay the target is T1, p130^fps (UniProt P00530+P03323).
T1 construct: anti-gag serum and Staphylococcus protein A suspension (for FSV-transformed cells); viral gag-derived N-terminal portion (natural gag-fps fusion); expressed in transfected cells; immune complex with anti-gag serum and Staphylococcus protein A
The experiment in a line: Casein phosphorylation by p130fps immunoprecipitates. The conditions noted are these: casein-phosphorylating activity of p130fps; concentration not given. Type of assay: biochemical, Fujinami sarcoma virus (FSV). As for the experimental part: In a related experiment, the capacity of Boc-LeuCH2 Br to inhibit phosphorylation of casein by p130^fps was determined. These tests were conducted substantially as described above, except 1 mg/mL casein was added to assay mixtures as a substrate, and reactions were terminated by addition of 2.5 mM unlabeled ATP and immediate cooling to 0°. Phosphorylated casein was separated from immunoprecipitate suspensions by centrifugation at 3,000 xg for 3 minutes. The resulting pellets were resuspended in 70 μL of 10 mM Hepes, pH 7.5, and 20 μL aliquots were pipetted onto filter paper squares as previously described. […]

For another assay, the system named is lymphoma cell line YAC-1. In words: Tumor cell line growth inhibition, YAC-1. Type of assay: cell-based. The procedure: (§1) In this series of experiments, the tumor cell growth inhibitory capacity of various peptide halomethyl ketones was tested against lymphoma cell lines YAC-1 and MOLT-4, and against an erythroleukemia cell line, K-562. The lymphoma cell line YAC-1 is described by Kiessling, et al., Eur. J. Immunol. 5:112 (1975), and MOLT-4 is described by Minowada, et al., J. Natl. Cancer Inst. 49:891 (1972) and Nilsson, et al., Int. J. Cancer 15:321 (1975). The erythroleukemia cell line K-562 is described by Lozzio, et al., Leuk. Res. 3:363 (1979). In these experiments, cells were grown on standard media as 10 mL suspension cultures. Initial cell density was 10^5 cells/mL. At day 0, test compounds were introduced in ethanol; control cultures received an equal volume of ethanol. Cells were counted at the times indicated.

The test system of assay [1] is A-431 plasma membrane extracts (EGF-mediated protein phosphorylation). In words: Protein phosphorylation in solubilized A-431 plasma membrane extracts, with or without EGF. The assay is classed as biochemical, human. As for the experimental part: The capacity of certain peptide halomethyl ketones to inhibit protein phosphorylation is illustrated by Examples 1-8, below, in which solubilized plasma membranes prepared from A-431 human epidermoid carcinoma cells were incubated with [γ-^32 P] ATP in the presence of EGF.
A-431 human epidermoid carcinoma cells were grown in Dulbecco's modified Eagle's medium containing 5% fetal calf serum. Plasma membranes were isolated by a method substantially similar to that described by Thom et al., Biochem J. 168:187 (1977), and kept at -70°. Solubilization of plasma membranes was performed substantially as described by Cohen et al., J. Biol. Chem. 255:4834 (1980). In this procedure, 7.5 mg/mL protein was solubilized with 5% Triton X-100 (octylphenol), 10% glycerol, and 20 mM Hepes buffer (N-2-hydroxyethylpiperazine-N^1 -2-ethanesulfonic acid), pH 7.4. This mixture was incubated for 20 minutes at about 23°, followed by centrifugation at 100,000 xg for 60 minutes.
(§2) Protein phosphorylation assays were conducted substantially as described by Carpenter et al., J. Biol. Chem. 254:4884 (1979). Each assay mixture contained, in a final volume of 70 μL: 20 mM Hepes, pH 7.4, 0.01% bovine serum albumin (BSA), 15-150 μg protein in Triton extract, 100 ng EGF, 1 mM MnCl2 and 10-20 μM [γ-^32 P] ATP (2-4 μCi). Peptide halomethyl ketones were added as solutions in ethanol; an equivalent volume of ethanol was added to controls. Assay mixtures were incubated at about 23° for ten minutes, with or without added EGF. Mixtures were then held at 0° for ten minutes before initiation of phosphorylation by addition of 15 μM γ-^32 P) ATP (2 μCi). Reactions were terminated after 3 minutes at 0° by applying an aliquot of the assay mixture to a Whatman 3MM filter paper (2×2 cm), which was then suspended in ice-cold 10% trichloroacetic acid containing 10 mM pyrophosphate. This suspension was gently shaken for a period of 1 hour, during which the trichloroacetic acid/pyrophosphate mixture was changed three times. Finally, the filter papers were dried and radioactivity measured by scintillation counting.

Assay [2] deals with lymphoma cell line MOLT-4. The experiment in a line: Tumor cell line growth inhibition, MOLT-4. Type of assay: cell-based. The procedure: as §1
The test system of assay [3] is erythroleukemia cell line K-562. In words: Tumor cell line growth inhibition, K-562. The assay is classed as cell-based. The procedure: as §1
For a further assay, the target named is T2, A-431 cell EGF receptor (Homo sapiens, UniProt P00533).
T2 construct: intact A-431 cell membranes were employed, rather than solubilized extracts; endogenous in cells; host or cells: A-431 human epidermoid carcinoma cells (plasma membranes)
T2 sequence (P00533 25-1210): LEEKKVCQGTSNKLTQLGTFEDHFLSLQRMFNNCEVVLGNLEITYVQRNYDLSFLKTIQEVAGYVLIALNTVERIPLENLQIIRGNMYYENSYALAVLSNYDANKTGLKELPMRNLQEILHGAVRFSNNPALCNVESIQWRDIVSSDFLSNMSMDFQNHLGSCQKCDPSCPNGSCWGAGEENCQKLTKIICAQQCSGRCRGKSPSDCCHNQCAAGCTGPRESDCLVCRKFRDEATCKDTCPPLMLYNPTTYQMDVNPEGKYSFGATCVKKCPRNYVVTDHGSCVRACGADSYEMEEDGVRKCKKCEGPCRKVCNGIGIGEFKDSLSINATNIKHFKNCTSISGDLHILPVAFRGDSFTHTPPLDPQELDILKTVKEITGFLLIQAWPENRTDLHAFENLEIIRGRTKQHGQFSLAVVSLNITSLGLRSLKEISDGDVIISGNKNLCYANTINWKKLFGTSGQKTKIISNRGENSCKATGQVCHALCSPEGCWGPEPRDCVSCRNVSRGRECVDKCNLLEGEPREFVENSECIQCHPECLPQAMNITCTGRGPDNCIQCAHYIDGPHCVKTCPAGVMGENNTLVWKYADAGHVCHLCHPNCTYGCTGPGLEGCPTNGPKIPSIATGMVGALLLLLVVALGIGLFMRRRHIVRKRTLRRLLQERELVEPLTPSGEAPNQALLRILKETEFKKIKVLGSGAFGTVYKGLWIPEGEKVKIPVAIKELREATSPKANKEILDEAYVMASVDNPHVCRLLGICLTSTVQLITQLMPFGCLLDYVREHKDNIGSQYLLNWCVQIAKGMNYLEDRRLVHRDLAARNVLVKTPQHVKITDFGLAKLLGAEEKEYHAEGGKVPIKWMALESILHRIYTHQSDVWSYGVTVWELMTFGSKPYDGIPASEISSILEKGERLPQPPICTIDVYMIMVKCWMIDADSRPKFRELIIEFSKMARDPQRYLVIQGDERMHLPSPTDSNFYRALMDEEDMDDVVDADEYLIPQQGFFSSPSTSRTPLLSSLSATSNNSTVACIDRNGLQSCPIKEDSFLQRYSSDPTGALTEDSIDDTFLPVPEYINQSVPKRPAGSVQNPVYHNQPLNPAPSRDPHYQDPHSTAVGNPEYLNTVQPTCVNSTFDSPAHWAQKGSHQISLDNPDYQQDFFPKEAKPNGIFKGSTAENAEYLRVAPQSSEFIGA
The experiment in a line: Protein phosphorylation of A-431 cell membrane EGF receptors (intact membranes, EGF present). Type of assay: biochemical. The conditions noted are these: 600 nmoles/mg protein, intact A-431 membranes. As for the experimental part: as §2
Assays were conducted substantially as described above, except intact A-431 cell membranes were employed, rather than solubilized extracts, and assay mixtures contained 1 mM ouabain. In these Examples, reactions were permitted to proceed for 6 minutes. This technique is substantially similar to that disclosed by Navarro et al., Biochemistry, 21:6138 (1982).

Setting [4] is: 400 nmol/mg protein, control 20.2.
The mark [5] stands for this setting: 400 nmol/mg protein, control 7.3.

Square brackets hold non-standard residues; d marks the D form. Peptide text beside a SMILES is read from it. * marks the point of attachment. ξ: configuration not given here. Cbz = O=C(OCc1ccccc1)*; ξL = CC(C)CC(N)C(=O)O; CH2Cl = ClC*

In the case of `CC(=O)NC(Cc1ccccc1)C(=O)NC(CCC(=O)O)C(=O)NC(C)C(=O)NC(CC(C)C)C(=O)CCl` (stereo not drawn) [Ac-Phe-Glu-Ala-LeuCH2 Cl] (Ac-FEAL-CH2Cl; configuration not given here), the “Percent Inhibition” value at p130^fps is recorded as -1%.

Turning to `CC(=O)N[C@@H](Cc1ccccc1)C(=O)NCC(=O)N[C@@H](C)C(=O)N[C@@H](CC(C)C)C(=O)CCl` [Ac-Phe-Gly-Ala-LeuCH2 Cl] (Ac-FGAL-CH2Cl), the “% Growth Relative to Control Cultures” value amounted to 80% in the assay with lymphoma cell line YAC-1 (0.4 μg/mL, day 1); 91% in the assay with lymphoma cell line YAC-1 (0.4 μg/mL, day 2); 78% in the assay with lymphoma cell line YAC-1 (10. μg/mL, day 1); 59% with lymphoma cell line YAC-1 (10. μg/mL, day 2); 43% in the assay with lymphoma cell line YAC-1 (10. μg/mL, day 3); 24% in the assay with lymphoma cell line YAC-1 (10. μg/mL, day 4). Also, the “% Growth Relative to Control Cultures” value in assay [2] (0.4 μg/mL, day 1) is on record as 50%; in assay [2] (0.4 μg/mL, day 4) it was 72%; in assay [2] (0.4 μg/mL, day 7), 66%; in assay [2] (2.0 μg/mL, day 4), 87%; in assay [2] (10. μg/mL, day 7) it was 88%; in assay [3] (0.4 μg/mL, day 1), 81%. Besides, the “% Growth Relative to Control Cultures” value was 85% in assay [3] (0.4 μg/mL, day 3); 84% in assay [3] (0.4 μg/mL, day 7); 79% in assay [3] (2.0 μg/mL, day 4); 77% in assay [3] (10. μg/mL, day 2); 87% in assay [3] (10. μg/mL, day 3); 47% in assay [3] (10. μg/mL, day 7). In addition, the “% inhibition, EGF Added” value in assay [1] (400 nmol/mg protein) came to 59%. Also, the “EGF Added (pmol 32P incorporated/min/mg protein)” value in assay [1] (setting [4]) is reported as 8.3 pmol^32 P incorporated/min/mg. In addition, the “% inhibition, No EGF Added” value in assay [1] (400 nmol/mg protein) stood at 29%. Further, in assay [1] (setting [5]), the “No EGF Added (pmol 32P incorporated/min/mg protein)” value is given as 5.2 pmol^32 P incorporated/min/mg.

With `CC(=O)NC(Cc1ccccc1)C(=O)NCC(=O)NC(CCC(=O)O)C(=O)NC(CC(C)C)C(=O)CCl` (stereo not drawn) [Ac-Phe-Gly-Glu-LeuCH2 Cl] (Ac-FGEL-CH2Cl; configuration not given here), the “Percent Inhibition” value at p130^fps stood at 0%.

`CC(C)[C@H](NC(=O)OC(C)(C)C)C(=O)CCl` [Boc-ValCH2 Cl]: in assay [1] (477 nmol/mg protein), the “% inhibition, EGF Added” value came to 25%. Moreover, the “EGF Added (pmol 32P incorporated/min/mg protein)” value in assay [1] (477 nmol/mg protein, control 96.2) is 72.2 pmol^32 P incorporated/min/mg. In addition, the “No EGF Added (pmol 32P incorporated/min/mg protein)” value in assay [1] (477 nmol/mg protein, control 21.6) is 20.3 pmol^32 P incorporated/min/mg.

As to `CC(C)C[C@H](NC(=O)[C@H](C)NC(=O)CNC(=O)[C@H](Cc1ccccc1)NC(=O)OCc1ccccc1)C(=O)CCl` [Z--Phe-Gly-Ala-LeuCH2 Cl, Z-Phe-Gly-Ala-LeuCH2 Cl] (Cbz-FGAL-CH2Cl), the “Percent Inhibition” value on p130^fps turned out to be 27%.

As to `C[C@H](NC(=O)CNC(=O)[C@H](Cc1ccccc1)NC(=O)OCc1ccccc1)C(=O)N[C@@H](Cc1ccc(O)cc1)C(=O)CCl` [Z--Phe-Gly-Ala-TyrCH2 Cl, Z-Phe-Gly-Ala-TyrCH2 Cl] (Cbz-FGAY-CH2Cl), the “% inhibition” value on A-431 cell EGF receptor came out at 67%.

`CC(C)CC(NC(=O)C(CC(C)C)NC(=O)CNC(=O)C(Cc1ccccc1)NC(=O)OCc1ccccc1)C(=O)CCl` (stereo not drawn) [Z--Phe-Gly-Leu-LeuCH2 Cl, Z-Phe-Gly-Leu-LeuCH2 Cl] (Cbz-FGLL-CH2Cl; configuration not given here): the “Percent Inhibition” value at p130^fps came to 44%.

With `CC(C)CC(NC(=O)C(CCCCN)NC(=O)CNC(=O)C(Cc1ccccc1)NC(=O)OCc1ccccc1)C(=O)CCl` (stereo not drawn) [Z--Phe-Gly-Lys-LeuCH2 Cl, Z-Phe-Gly-Lys-LeuCH2 Cl] (Cbz-FGKL-CH2Cl; configuration not given here), the “Percent Inhibition” value on p130^fps came to 48%.

As for `CC(C)C[C@H](NC(=O)[C@H](Cc1ccccc1)NC(=O)CNC(=O)[C@H](Cc1ccccc1)NC(=O)OCc1ccccc1)C(=O)CCl` [Z--Phe-Gly-Phe-LeuCH2 Cl, Z-Phe-Gly-Phe-LeuCH2 Cl] (Cbz-FGFL-CH2Cl), the “Percent Inhibition” value on p130^fps came to 34%.

With `CC(C)C[C@H](NC(=O)[C@@H]1CCCN1C(=O)CNC(=O)[C@H](Cc1ccccc1)NC(=O)OCc1ccccc1)C(=O)CCl` [Z--Phe-Gly-Pro-LeuCH2 Cl] (Cbz-FGPL-CH2Cl), the “Percent Inhibition” value at p130^fps amounted to 7%.

With `CC(C)CC(NC(=O)[C@H](C)NC(=O)[C@H](CC(C)C)NC(=O)[C@H](Cc1ccccc1)NC(=O)OCc1ccccc1)C(=O)CCl` (stereo partly drawn) [Z--Phe-Leu-Ala-LeuCH2 Cl, Z-Phe-Leu-Ala-LeuCH2 Cl] (Cbz-FLA[ξL]-CH2Cl), the “Percent Inhibition” value at p130^fps amounted to 36%.

In the case of `CC(C)CC(NC(=O)C(C)NC(=O)C(CCCCN)NC(=O)C(Cc1ccccc1)NC(=O)OCc1ccccc1)C(=O)CCl` (stereo not drawn) [Z--Phe-Lys-Ala-LeuCH2 Cl, Z-Phe-Lys-Ala-LeuCH2 Cl] (Cbz-FKAL-CH2Cl; configuration not given here), on p130^fps, the “Percent Inhibition” value worked out at 11%.

On to `CC(C)C[C@H](NC(=O)[C@H](C)NC(=O)[C@H](Cc1ccccc1)NC(=O)[C@H](Cc1ccccc1)NC(=O)OCc1ccccc1)C(=O)CCl` [Z--Phe-Phe-Ala-LeuCH2 Cl] (Cbz-FFAL-CH2Cl), for which, on p130^fps, the “Percent Inhibition” value was 11%.

As for `CC(C)CC(NC(=O)C(C)NC(=O)C1CCCN1C(=O)C(Cc1ccccc1)NC(=O)OCc1ccccc1)C(=O)CCl` (stereo not drawn) [Z--Phe-Pro-Ala-LeuCH2 Cl] (Cbz-FPAL-CH2Cl; configuration not given here), the “Percent Inhibition” value on p130^fps was found to be 16%.

In the case of `C[C@H](NC(=O)OCc1ccccc1)C(=O)CCl` [Z-AlaCH2 Cl], in assay [1] (400 nmol/mg protein), the “% inhibition, EGF Added” value came to 71% and the “% inhibition, No EGF Added” value is reported as 44%. Further, in assay [1] (setting [4]), the “EGF Added (pmol 32P incorporated/min/mg protein)” value was 5.9 pmol^32 P incorporated/min/mg. For the same compound, the “No EGF Added (pmol 32P incorporated/min/mg protein)” value in assay [1] (setting [5]) was 4.1 pmol^32 P incorporated/min/mg.
